In PubChem BioAssay (NCI) one finds TGI and GI50 data, which are given here for 10 compounds.

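How tested: cells in 96-well plates exposed to compound for 48 hours at five concentrations. At the GI50, growth is halved. TGI denotes the concentration required for complete inhibition of growth.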

What all share (experiment): NCI-60 cell line screen, 48 h
Experiment [1] has as its system A498 renal.
The test system of experiment [2] is ACHN renal.
Experiment [3] relates to HCT-116 colon.
For experiment [4], the system named is MDA-MB-435.
Experiment [5] has as its system OVCAR-5 ovarian.
The subject of experiment [6] is SNB-19 CNS.
The subject of experiment [7] is SW-620 colon.
The test system of experiment [8] is U251 CNS.

In the case of `COc1cc([C@@H]2OC[C@@H]3C(c4cc(OC)c5c(c4)OCO5)OC[C@@H]32)cc(OC)c1OC` (stereo partly drawn), the TGI in experiment [1], in experiment [2], in experiment [3], in experiment [4], in experiment [5] and in experiment [6] was more than 100 µM each time. Besides, the TGI in experiment [7] and in experiment [8] was more than 100 µM throughout.

Take `C=C1CCC2C3(C)COC(c4ccc(N(C)C)cc4)OC3CCC2(C)C1C/C=C1/C(=O)OCC1O` (stereo not drawn): the GI50 in experiment [1] is 6.25 µM; in experiment [2], 9.16 µM; in experiment [3] it was 1.62 µM; in experiment [4], 2.88 µM; in experiment [5] it was 7.7 µM; in experiment [6], 16.4 µM. For the same compound, the results for the GI50 in experiment [7] and in experiment [8] were 1.95 µM and 2.1 µM, respectively. Moreover, the TGI in experiment [1] stood at 17.1 µM; in experiment [2], 21.4 µM; in experiment [3], 3.05 µM; in experiment [4] it was 10.5 µM; in experiment [5], 20 µM; in experiment [6] it was 32.3 µM. Moreover, the results for the TGI in experiment [7] and in experiment [8] were 4.25 µM and 5.21 µM, respectively.

`CC/C=C1/C(=O)C=C[C@@H]1C/C=C\CCCC(=O)OC`: the GI50 was 2.27 µM in experiment [2]; 0.447 µM in experiment [3]; 1.86 µM in experiment [4]; 4.73 µM in experiment [5]; 3.27 µM in experiment [6]; 2.75 µM in experiment [8]. For the same compound, the TGI in experiment [2] amounted to 4.57 µM; in experiment [3] it was 2.4 µM; in experiment [4], 4.6 µM; in experiment [5], 15.1 µM; in experiment [6], 12.9 µM; in experiment [8], 9.96 µM.

In the case of `CCN(CC)CCCCNc1c2ccccc2[n+](C)c2c1[nH]c1ccccc12`, the GI50 in experiment [1] was 0.613 µM; in experiment [2] it was 2.27 µM; in experiment [3] it was 0.356 µM; in experiment [4], 0.6 µM; in experiment [5], 1 µM; in experiment [6], 0.269 µM. The values for the GI50 in experiment [7] and in experiment [8] were 0.395 µM and 0.238 µM, respectively. Also, the TGI in experiment [1] was 2.39 µM; in experiment [2], more than 47.3 µM; in experiment [4], 2.16 µM; in experiment [5], 11.5 µM; in experiment [6] it was 2.03 µM; in experiment [7] it was 7.47 µM. The TGI in experiment [8] was 4.46 µM.

In the case of `CCC(C)(CC(C)(C)C(=O)NCC(=O)NC(Cc1ccccc1)C(=O)NC(Cc1ccccc1)C(=O)NCC(=O)NC1CC(OC2CC(O)(C(=O)CO)Cc3c(O)c4c(c(O)c32)C(=O)c2c(OC)cccc2C4=O)OC(C)C1O)C(=O)NCC(C)O` (stereo not drawn), the GI50 was more than 150 µg/mL in experiment [1]; 73.9 µg/mL in experiment [2]; 55.3 µg/mL in experiment [3]; more than 150 µg/mL in experiment [4]; more than 150 µg/mL in experiment [5]; 69.2 µg/mL in experiment [6]. The GI50 in experiment [7] is 131 µg/mL; in experiment [8], 51.2 µg/mL. For the same compound, the TGI in experiment [1], in experiment [2], in experiment [3], in experiment [4], in experiment [5] and in experiment [6] was more than 150 µg/mL in each case. Moreover, the TGI in experiment [7] and in experiment [8] was more than 150 µg/mL each time.

Consider `COc1ccc(/C(COc2ccc3c(=O)cc(-c4ccccc4)oc3c2)=N\O)cc1`, for which the GI50 in experiment [2] is 9.5 µM; in experiment [3], 21.2 µM; in experiment [4] it was 6.77 µM; in experiment [5] it was 0.402 µM; in experiment [6], 18.7 µM; in experiment [7], more than 35.6 µM. Further, the GI50 in experiment [8] was 14.8 µM. Further, the TGI was 19 µM in experiment [2]; more than 50 µM in experiment [3]; 23.9 µM in experiment [4]; more than 10.2 µM in experiment [5]; more than 50 µM in experiment [6]; more than 50 µM in experiment [7]. Moreover, the TGI in experiment [8] is more than 50 µM.

Consider `COc1cnc2c(c1)C(=O)c1c-2n(CCCn2ccnc2)c(=O)c2cc(F)ccc12`, for which the GI50 in experiment [1] was 0.0508 µM; in experiment [3] it was less than 0.01 µM; in experiment [4], 0.121 µM; in experiment [5] it was 0.119 µM; in experiment [6], less than 0.01 µM; in experiment [7], 0.0221 µM. In addition, the GI50 in experiment [8] was less than 0.01 µM. Besides, the TGI in experiment [1] came out at 0.218 µM; in experiment [3], 0.141 µM; in experiment [4], 0.832 µM; in experiment [5], 0.789 µM; in experiment [6], 11.4 µM; in experiment [7], 1.01 µM. In experiment [8], the TGI came out at 0.179 µM.

Consider `O=C([CH-]C(=O)c1ccccc1)c1ccccc1.O=C([CH-]C(=O)c1ccccc1)c1ccccc1.[La+3].[OH-].[OH3+]`, for which the GI50 in experiment [1] was 17.9 µM; in experiment [2] it was 19.6 µM; in experiment [3], 7.89 µM; in experiment [5], 65.8 µM; in experiment [6], 19.2 µM; in experiment [7], 9.82 µM. In experiment [8], the GI50 was 15.2 µM. In addition, the TGI is 87.7 µM in experiment [1]; more than 100 µM in experiment [2]; 29.6 µM in experiment [3]; more than 100 µM in experiment [5]; 66.3 µM in experiment [6]; more than 100 µM in experiment [7]. Also, in experiment [8], the TGI is more than 100 µM.

With `CN(CCCn1c2c(c3ccccc3c1=O)C(=O)c1ccccc1-2)CCCn1c2c(c3ccccc3c1=O)C(=O)c1ccccc1-2`, the GI50 in experiment [1] is 11.4 µM; in experiment [3], 0.0133 µM; in experiment [4], 1.56 µM; in experiment [5] it was 1.66 µM; in experiment [6], 0.081 µM; in experiment [7], 0.188 µM. The TGI is 74.3 µM in experiment [1]; 0.37 µM in experiment [3]; 17.8 µM in experiment [4]; 3.59 µM in experiment [5]; 28 µM in experiment [6]; more than 100 µM in experiment [7].

As to `CC(=O)OCC1OC(n2cnc(C(N)=S)c2N)C(OC(C)=O)C1OC(C)=O` (stereo not drawn), the TGI in experiment [2], in experiment [3], in experiment [4], in experiment [5], in experiment [6] and in experiment [7] was more than 100 µM throughout. Besides, in experiment [8], the TGI is more than 100 µM.
